Measured values reported in PMC9951879, “Synthesis of New Shogaol Analogues as NRF2 Activators and Evaluation of Their Anti-Inflammatory Activity, Modes of Action and Metabolic Stability” (Antioxidants, 2023).

What was measured:
[1] = tested on: NAD(P)H quinone oxidoreductase 1 (NQO1); assay: Prochaska microtiter plate bioassay, NQO1 induction in Hepa-1c1c7 cells; format: cell-based, mouse; conditions: Mus musculus, Hepa-1c1c7, 48 h, Hepa-1c1c7 cells, 48 h; read-out: CD (concentration required to double the NQO1 level)
Method: The effect of shogaol thiophene compounds (STCs) on NRF2 activation is determined by measuring the NAD(P)H quinone oxidoreductase 1 (NQO1) inducer activity, as reported in our previous studies. The mouse hepatoma cells (Hepa-1c1c7, 1 × 10^4 per well) were incubated with STCs (10, 1, 0.1, 0.01, and 0.001 µM) for 48 h. The cells were lysed using digitonin (0.8 mg/mL and 2 mM EDTA; Acros, UK), and the protein concentration was determined using Bradford’s assay kit (Thermo Fisher Scientific, USA). The cell lysate was incubated with a reaction mixture of 0.5 M Tris-Cl buffer (Calbiochem, USA), 7.5 mM FAD (Acros, UK), 150 mM glucose-6-phosphate (Calbiochem, San Diego, CA, USA), 2 U/mL glucose-6-phosphate dehydrogenase (Calbiochem, USA), 50 mM NADP+ (Sigma Aldrich, USA), 25 mM menadione (Sigma Aldrich, USA), and 0.7 mM MTT (Sigma Aldrich, USA) at 37 °C for 5 min. The absorbance was recorded at 610 nm using a microplate reader (Spectramax M3, Molecular Devices, San Jose, CA, USA), and the values were normalised to the total protein content.

KEAP1-NRF2 interaction = target: T1, KEAP1-NRF2 interaction (Homo sapiens, UniProt Q14145); assay: KEAP1-Nrf2 inhibitor screening, fluorescence polarisation assay; format: binding; conditions: KEAP1 Kelch domain, read-out: IC50, NRF2-KEAP1 inhibition
T1 construct: purchased BPS Bioscience
Method: The KEAP1-Nrf2 inhibitor screening assay kit (BPS Bioscience, San Diego, California, USA) was used to determine the effect of STCs in inhibiting KEAP1-NRF2 interaction following the manufacturer’s protocol and our reported method. The STC solutions were diluted with the assay buffer, and 5 μL of the STC solutions were incubated at room temperature for 30 min in the peptide mixture containing 0.5 μL NRF2 peptide (1 μM) and 20 μL KEAP1 (15 ng/μL). The fluorescence polarisation (FP) was measured using a microplate reader at λex 485 nm and λem 530 nm. The following equation was used to determine the per cent KEAP1-NRF2 inhibitory effect of the STCs. Keap1−Nrf2 inhbitory activity %=1−Relative FP of STC/Relative FP of postive control×100

GSK-3β = target: T2, GSK-3β (Homo sapiens, UniProt P49841); assay: GSK-3β kinase ADP-Glo assay; format: biochemical; conditions: ATP 25 μM, read-out: IC50, GSK-3β enzyme activity
T2 construct: purchased Promega
Method: The effect of STCs on GSK-3β activity was determined using GSK-3β kinase enzyme (Promega, WI, USA) and ADP-Glo^TM kinase assay (Promega, USA) following the manufacturer’s protocol and reported method. The STCs were dissolved in the kinase buffer to prepare different concentrations (10, 1, 0.1, 0.01, and 0.001 μM). One microliter of the test compounds was added to each well (384 well plate), followed by the addition of 2 μL of GSK-3β kinase (1 ng), 2 μL of the GSK-3β substrate (0.4 μg), and 2 μL of the ATP (25 μM), and incubated for 60 min. Then, 5 μL of ADP-Glo^TM reagent was added and incubated further for 40 min. Then 10 μL of kinase detection reagent was added and incubated for 30 min. The luminescence was recorded using a SpectraMax®L microplate reader (Molecular Devices, San Jose, CA, USA). The IC50 (concentration of the test compound required to produce half-maximal […]) from dose-response curves using non-linear regression analysis using GraphPad Prism (9.5.0; San Diego, CA, USA) software.

[2] = Liver microsomal stability, human; format: in vitro ADME; conditions: human liver microsomes, 1 μM (verapamil 0.5 μM)
Method: (§1) The liver microsomes of humans, rats, and mice were purchased from Merck (human, #M0567; rat, #M9066; mouse, #M9441). The metabolic stability of 6-shogaol and STCs (1 μM effective concentration; 5 μL) was mixed with liver microsomes (0.5 mg mL^−1; 445 μL) in a microcentrifuge tube. Verapamil (0.5 μM) was used as the positive control. The microsome and compound mixture were shaken on a plate shaker for 5 min to ensure homogeneity. NADPH (1 mM; 50 μL) was added to the mixture to start the metabolic reaction. The reaction mixture was incubated at 37 °C for 0, 3, 6, 15, 30, 45, and 60 min. The mixture (20 μL) was sampled and quenched with 180 μL of acetonitrile with internal standard (Donepezil 50 ng/mL) to terminate the metabolic reaction at each time point. Ultrapure water (80 μL) was added, and contents in the microcentrifuge tubes were centrifuged at 3800 rpm at 4 °C for 10 min. […] Each set of experiments was repeated three times in human, rat, and mouse liver microsomes. The concentration of the compounds versus time was plotted to determine the elimination rate constant (Kel). The intrinsic clearance (Clint) and half-life (t1/2) were calculated using the following equations.

[3] = Liver microsomal stability, rat; format: in vitro ADME; conditions: rat liver microsomes, 1 μM (verapamil 0.5 μM)
Method: as §1

[4] = Liver microsomal stability, mouse; format: in vitro ADME; conditions: mouse liver microsomes, 1 μM (verapamil 0.5 μM)
Method: as §1

T1 sequence (Q14145 2-624 limits assumed): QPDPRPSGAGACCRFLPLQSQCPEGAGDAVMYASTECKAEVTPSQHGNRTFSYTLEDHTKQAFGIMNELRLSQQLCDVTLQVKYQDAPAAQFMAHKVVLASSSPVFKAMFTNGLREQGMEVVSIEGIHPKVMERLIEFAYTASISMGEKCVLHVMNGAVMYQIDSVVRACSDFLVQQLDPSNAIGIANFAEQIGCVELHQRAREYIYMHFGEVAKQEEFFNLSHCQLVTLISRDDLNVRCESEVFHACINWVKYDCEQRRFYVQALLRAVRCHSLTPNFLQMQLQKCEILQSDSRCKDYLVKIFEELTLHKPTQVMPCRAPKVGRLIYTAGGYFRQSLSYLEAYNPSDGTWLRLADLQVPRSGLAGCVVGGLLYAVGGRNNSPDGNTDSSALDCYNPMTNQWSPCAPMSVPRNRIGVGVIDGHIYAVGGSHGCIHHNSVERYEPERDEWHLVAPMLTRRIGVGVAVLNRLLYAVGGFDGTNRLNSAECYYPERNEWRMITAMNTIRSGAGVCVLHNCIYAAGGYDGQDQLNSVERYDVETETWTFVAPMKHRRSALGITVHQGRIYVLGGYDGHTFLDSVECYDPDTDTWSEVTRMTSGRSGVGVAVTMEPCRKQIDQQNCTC
T2 sequence (P49841 whole entry): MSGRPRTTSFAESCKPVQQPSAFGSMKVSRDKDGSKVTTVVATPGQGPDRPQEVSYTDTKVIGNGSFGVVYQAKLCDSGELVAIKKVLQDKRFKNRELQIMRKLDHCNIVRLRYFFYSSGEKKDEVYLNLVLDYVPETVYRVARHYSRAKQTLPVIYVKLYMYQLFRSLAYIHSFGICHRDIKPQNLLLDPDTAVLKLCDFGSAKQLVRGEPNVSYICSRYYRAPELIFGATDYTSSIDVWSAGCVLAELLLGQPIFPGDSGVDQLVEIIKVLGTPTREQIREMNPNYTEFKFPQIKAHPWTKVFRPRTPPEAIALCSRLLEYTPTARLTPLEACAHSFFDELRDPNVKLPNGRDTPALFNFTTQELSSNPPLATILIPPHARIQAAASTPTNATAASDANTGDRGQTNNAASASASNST

Row | SMILES | EC (2-fold NQO1 induction) [1] [µM] | IC50 (KEAP1-NRF2 interaction) [µM] | IC50 (GSK-3β) [µM] | Clint [2] [mL/min/g liver] | half-life at 1 μM [2] [min] | Clint [3] [mL/min/g liver] | half-life at 1 μM [3] [min] | Clint [4] [mL/min/g liver] | half-life at 1 μM [4] [min]
1 | COc1cc(CCC(=O)/C=C/c2cc(Br)cs2)ccc1O [STC4, (E)-5-(4-Hydroxy-3-methoxyphenyl)-1-(4-bromothiophen-2-yl)pent-1-en-3-one] | 0.43 ± 0.09 | 0.28 | 0.13 | 6.35 ± 1.79 | 11.5 | 8.79 ± 1.94 | 8.28 | 9.67 ± 1.23 | 7.52
2 | COc1cc(CCC(=O)/C=C/c2cccs2)ccc1O [STC2, (E)-5-(4-Hydroxy-3-methoxyphenyl)-1-(thiophen-2-yl)pent-1-en-3-one] | 2.65 ± 0.27 | 0.63 | 0.32 | 6.85 ± 1.62 | 10.6 | 9.46 ± 1.85 | 7.69 | 10.64 ± 1.66 | 6.84
3 | COc1cc(CCC(=O)/C=C/c2ccsc2)ccc1O [STC1, (E)-5-(4-Hydroxy-3-methoxyphenyl)-1(thiophen-3-yl)pent-1-en-3-one] | 4.19 ± 0.44 | 0.86 ± 0.11 | 0.42 ± 0.08 | 7.15 ± 1.24 | 10.2 | 10.63 ± 1.25 | 6.85 | 11.24 ± 1.43 | 6.47
4 | COc1cc(CCC(=O)/C=C/c2ccc(Br)s2)ccc1O [STC6, (E)-5-(4-Hydroxy-3-methoxyphenyl)-1-(5-bromothiophen-2-yl)pent-1-en-3-one] | 0.42 ± 0.11 | 0.29 | 0.14 | 5.32 ±1.08 | 13.7 | 8.17 ± 1.74 | 8.91 | 7.23 ± 1.34 | 10.1
5 | CCc1ccc(/C=C/C(=O)CCc2ccc(O)c(OC)c2)s1 [STC7, (E)-5-(4-Hydroxy-3-methoxyphenyl)-1-(5-ethylthiophen-2-yl)pent-1-en-3-one] | 1.48 ± 0.34 | 0.35 | 0.19 | 6.27 ± 1.44 | 11.6 | 8.52 ± 1.16 | 8.54 | 7.85 ± 2.51 | 9.27
6 | COc1cc(CCC(=O)/C=C/c2sccc2C)ccc1O [STC3, (E)-5-(4-Hydroxy-3-methoxyphenyl)-1-(3-methylthiophen-2-yl)pent-1-en-3-one] | 1.84 ± 0.15 | 0.54 | 0.24 | 6.18 ± 1.34 | 11.8 | 9.65 ± 1.54 | 7.54 | 9.27 ± 2.14 | 7.85
